Test results reported in patent publication US6211215A, “Heterocyclic compounds, their production and use” (Takeda Chemical Industries, Ltd., priority 1996, dated 2001).

Key:
[1] = biological target: HER2 (Homo sapiens, UniProt P04626); test: Inhibition of the activity of human growth factor receptor (HER2) tyrosine kinase; assay type: biochemical; parameters: the tyrosine kinase domain of the human HER2 gene was cloned; made in house; host or cells: insect cell line SF-21 (recombinant insect virus vector); conditions: HER2 receptor type tyrosine kinase; ELISA with HER3 substrate; read-out: Concentration of inhibiting HER2 (IC50)
Chain of HER2 (P04626 720-987 limits assumed): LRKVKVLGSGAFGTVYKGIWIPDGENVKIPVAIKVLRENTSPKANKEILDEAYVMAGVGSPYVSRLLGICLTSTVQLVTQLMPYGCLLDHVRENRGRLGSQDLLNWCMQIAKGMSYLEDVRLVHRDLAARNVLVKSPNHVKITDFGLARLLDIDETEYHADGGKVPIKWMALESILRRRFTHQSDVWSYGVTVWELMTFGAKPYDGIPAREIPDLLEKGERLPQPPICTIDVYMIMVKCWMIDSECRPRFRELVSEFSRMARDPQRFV
Excerpt: As enzyme standard, the tyrosine kinase domain of the human HER2 gene was cloned to prepare the recombinant gene of insect virus vector, with which the insect cell line SF-21 was infected to produce an enzyme protein (Guy P. M. et al., Journal of Biological Chemistry Vol. 267, pp.13851-13856, 1992). As substrate, the phosphorylated tyrosine domain of the HER3 protein was cloned to prepare the recombinant gene of plasmid vector with which Escherichia Coli strain JM109 was infected to give an enzyme protein (Sierke S. L. et al., Biochemistry Vol. 32, pp.10102-10108, 1993). The enzymatic reaction was performed by the enzyme-linked immunological method which consisted of fixing the substrate protein in wells of a 96-well microtiter plate, adding the enzyme into the wells and quantitating phosphorylated tyrosine, which was the reaction product, by use of the anti-phosphorylated tyrosine antibody (Cleaveland J. S. et al., Analytical Biochemistry Vol. 190, pp249-253, 1990).

[2] = test system: BT-474; test: Selective in vitro inhibition of breast cancer cell growth; assay type: cell-based; conditions: Homo sapiens, 72 h; Mammary cancer BT-474; 3 days; SRB; read-out: IC50, inhibition of cell proliferation
Method: (§1) 100 μl (containing 2,000 cells) of a cell suspension of various human breast cancer cell lines shown in [Table 6] was seeded in each well of the 96-well microtiter plates. The cells were incubated at 37° C. in a 5% carbon dioxide gas incubator. Next day, 100 μl of a 2 fold serial dilution of a compound solution was added to each well. The cultures were incubated for 3 days. The solution containing the compound was removed and the cells were washed with water. To the cells was added a 0.4% (V/W) dye SRB (dissolved in 1% acetic acid) solution to fix and stain the cell protein. The dye solution was removed and the fixed and stained cell protein was washed. The protein-bound dye was extracted with 200 μl of 10 mM Tris buffer. The optical density of the extracted dye was determined at the wavelength of 540 nm to estimate the quantity of the cells in terms of the protein quantity. Designating the protein quantity in the control to which no compound solution was added as 100%, the proportion of the residual protein quantity in each treated group was calculated, and IC50, which was the concentration of the compound required to inhibit the residual protein quantity to 50% the quantity of the control, was calculated.

[3] = test system: WiDr; test: as above; assay type: cell-based; conditions: Homo sapiens, 72 h; Large intestinal cancer WiDr; 3 days; SRB; read-out: IC50, inhibition of cell proliferation
Method: as §1

[4] = test system: BT-20; test: as above; assay type: cell-based; conditions: Homo sapiens, 72 h; Mammary cancer BT-20; 3 days; SRB; read-out: IC50, inhibition of cell proliferation
Method: as §1

[5] = test system: MRC5; test: as above; assay type: cell-based; conditions: Homo sapiens, 72 h; Normal MRC5; 3 days; SRB; read-out: IC50, inhibition of cell proliferation
Method: as §1

[6] = test system: MDA-MB-453; test: as above; assay type: cell-based; conditions: Homo sapiens, 72 h; Mammary cancer MDA-MB-453; 3 days; SRB; read-out: IC50, inhibition of cell proliferation
Method: as §1

[7] = test system: HSC-1; test: as above; assay type: cell-based; conditions: Homo sapiens, 72 h; Epidermal cancer HSC-1; 3 days; SRB; read-out: IC50, inhibition of cell proliferation
Method: as §1

[8] = test system: MDA-MB-468; test: as above; assay type: cell-based; conditions: Homo sapiens, 72 h; Mammary cancer MDA-MB-468; 3 days; SRB; read-out: IC50, inhibition of cell proliferation
Method: as §1

[9] = test system: T-47D; test: as above; assay type: cell-based; conditions: Homo sapiens, T47D, 72 h; Mammary cancer T-47D; 3 days; SRB; read-out: IC50, inhibition of cell proliferation
Method: as §1

[10] = test system: SKBR3; test: as above; assay type: cell-based; conditions: Homo sapiens, SK-BR-3, 72 h; Mammary cancer SKBR3; 3 days; SRB; read-out: IC50, inhibition of cell proliferation
Method: as §1

[11] = test system: ASPC-1; test: as above; assay type: cell-based; conditions: Homo sapiens, ASPC1, 72 h; Pancreatic cancer ASPC-1; 3 days; SRB; read-out: IC50, inhibition of cell proliferation
Method: as §1

[12] = test system: human mammary cancer cell line; test: Selective in vitro inhibition of breast cancer cell growth (panel of cell lines, Test Example 6); assay type: cell-based; conditions: Table 6 cell lines
Method: as §1

[13] = test system: human prostate cancer cell line, LNCaP; test: In vivo inhibition of prostate cancer (2); parameters: species or system male Balb/C-strain athymic nude mice; conditions: for Tumor growth rate (%): 60 mg/kg/day, oral, 30 mg/kg twice daily for 21 days
Method: 5,000,000 cells of human prostate cancer cell line, LNCaP, were suspended in a gelmatrix solution and implanted subcutaneously at the breast in 8-week old male Balb/C-strain athymic nude mice (Friedman R. et al., Proceedings of the National Academy of Sciences of the U.S.A. Vol. 87, pp.6698-6702, 1990). 33 days after the implantation, the diameters of tumors were measured. Five mice per group with similar tumor size were used for the experiment. Compound 8 of the present invention was suspended in a 5% gum arabic solution (physiological saline) and administered orally twice daily in a dose of 30 mg/kg body weight for 21 days. For another experiment, the mice were castrated 33 days after implantation of the cancer cell for observing the effect of hormone depletion on the prostate cancer growth. Furthermore, Compound 8 of the present invention was administered orally twice daily in a dose of 30 mg/kg body weight for 21 days to the castrated mice. After the completion of the dosing, the diameters of tumor were measured. The tumor volume was calculated by the following formula: volume of tumor=longest diameter×shortest diameter×shortest diameter×1/2. The growth rate of tumors was obtained as the proportion to the volume of tumor in the control animals in which only the gum arabic solution was administered. The body weights of mice administered with Compound 8 of the present invention were measured during the experiment to observe no decrease.

IC50 [1]: 20000 nM
IC50 [2]: 290 nM
IC50 [3]: 2100 nM
IC50 [4]: 520 nM
IC50 [6]: 250 nM
IC50 [7]: 2100 nM
IC50 [8]: 520 nM
IC50 [9]: 570 nM
IC50 [10]: 1000 nM
IC50 [11]: 2500 nM
Structure (SMILES): C(=C\c1nc(COc2ccc(CCCn3ccnc3)cc2)co1)/c1ccccc1 [Compound 8, 4-[4-[3-(1-imidazolyl)propyl]phenoxymethyl]-2-[(E)-2-phenylethenyl]oxazole]
IC50 [5]: 15000 nM
Selective inhibition of cell growth [12]: inhibit specifically the cell growth of human mammary cancer cell line
Tumor growth rate (%) ([13]; castrated group (castrated without compound: 69)): 55%
Tumor growth rate (%) ([13]; non-castrated, tumor volume vs control): 80%
Inhibition of implanted tumor growth ([13]; LNCaP, athymic nude mice): inhibiting tumor growth of hormone dependent prostate cancer LNCaP
Effect of castration on tumor growth inhibiting effect ([13]; LNCaP, castrated athymic nude mice): further enhanced when the hormone levels were reduced by castration
